# From paper PMC7872424, “Mining Natural Products for Macrocycles to Drug Difficult Targets” (Journal of Medicinal Chemistry, 2020)
# Experiments:
# [1] = tested on: Caco-2 cell monolayers; assay: Efflux-inhibited permeability across Caco-2 cell monolayers; assay type: in vitro ADME
# [2] = tested on: HL-60 cell line; set-up: method as in Cribiu, R., et al., Angew. Chem. Int. Ed. 2009, 48, 8780–8783; conditions: Table S4; ref Cribiu, R., et al., Angew. Chem. Int. Ed. 2009, 48, 8780–8783; cited from earlier work
# [3] = tested on: DAUDI cell line; set-up: method as in Cribiu, R., et al., Angew. Chem. Int. Ed. 2009, 48, 8780–8783; conditions: Table S4; ref Cribiu, R., et al., Angew. Chem. Int. Ed. 2009, 48, 8780–8783; cited from earlier work
# [4] = tested on: Trichophyton mentagrophytes 833; set-up: method as in Tamai, S., et al., J. Antibiot., 1982, 35, 1130-1136; conditions: Table S4; ref Tamai, S., et al., J. Antibiot., 1982, 35, 1130-1136; cited from earlier work
# [5] = tested on: Trichophyton asteroides 429; set-up: method as in Tamai, S., et al., J. Antibiot., 1982, 35, 1130-1136; conditions: Table S4; ref Tamai, S., et al., J. Antibiot., 1982, 35, 1130-1136; cited from earlier work
# [6] = tested on: DNA gyrase B; set-up: method as in earlier work; conditions: Table S4, ref Brvar, M., et al., Bioorg. Med. Chem. Lett. 2010, 20, 3, 958–962 & Boehm, H. J., J. Med. Chem. 2000, 43, 14, 2664-2674; cited from earlier work
smiles,measurement,setting,value
"CC(=O)N1CCC[C@H]1C(=O)N[C@@H]1COC(=O)c2ccccc2CSC[C@H](C(=O)N(C)C)NC1=O [Compound 14, (4S,7R)-7-((S)-1-Acetylpyrrolidine-2-carboxamido)-N,N-dimethyl-6,10-dioxo-1,3,4,5,6,7,8,10-octahydrobenzo[j][1]oxa[8]thia[5]azacyclododecine-4-carboxamide]",permeability across Caco-2 cell monolayers (in words),[1],low-to-moderate
CC=CCC=CC(C)CC(O)C1CC2OC2C=CC(O)C(O)C=CCC(C)CC(=O)O1 (stereo not drawn) [Iriomoteolide 3a],Antiproliferative activity vs HL-60 cell line,[2],Antiproliferative activity
same,Antiproliferative activity vs DAUDI cell line,[3],Antiproliferative activity
Oc1ccc2cc1Oc1ccc(cc1)CC1CNC(CN1)C2 (stereo not drawn) [Piperazinomycin],Inhibition of Trichophyton mentagrophytes 833,[4],Inhibition
same,Inhibition of Trichophyton asteroides 429,[5],Inhibition
Cc1c(O)cc(O)c2c1C(=O)OCC(NC(=O)C1C(O)CCN1C(=O)C(N)CO)C(=O)NC(C(=O)NC(C)C(=O)O)CSC2 (stereo not drawn) [Cyclothialidine],DNA gyrase B ATPase activity,[6],Inhibition
